The text below walks through data of ChEMBL document CHEMBL4673218, “Kojyl cinnamate esters are peroxisome proliferator-activated receptor α/γ dual agonists” (Bioorg Med Chem, 2018).

In this assay the target is T1, Peroxisome proliferator-activated receptor delta (Homo sapiens) (UniProt Q03181).
T1 sequence (whole entry): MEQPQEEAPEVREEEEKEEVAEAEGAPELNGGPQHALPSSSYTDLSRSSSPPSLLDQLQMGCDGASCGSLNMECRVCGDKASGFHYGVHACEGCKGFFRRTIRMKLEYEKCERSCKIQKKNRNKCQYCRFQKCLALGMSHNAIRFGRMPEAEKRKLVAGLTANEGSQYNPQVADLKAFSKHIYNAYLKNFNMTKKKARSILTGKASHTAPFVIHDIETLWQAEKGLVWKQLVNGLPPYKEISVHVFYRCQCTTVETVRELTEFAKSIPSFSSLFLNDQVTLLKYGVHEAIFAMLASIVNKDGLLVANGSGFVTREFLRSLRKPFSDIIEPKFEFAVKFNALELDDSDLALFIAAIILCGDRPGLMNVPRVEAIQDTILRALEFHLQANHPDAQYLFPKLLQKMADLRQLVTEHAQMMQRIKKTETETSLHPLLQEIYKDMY
The experiment in a line: Binding affinity to human recombinant PPARdelta at 30 uM by competitive binding based TR-FRET assay. In general terms: In TR-FRET formats the signal depends on donor and acceptor labels being close together.

Activity calls are given as the source filed them. No cut-off for these calls is given here.

`COc1ccc(OC)c(/C=C/C(=O)OCc2cc(=O)c(O)co2)c1`: the result was inactive.
